Paper PMC3362645, “The Sigma Class Glutathione Transferase from the Liver Fluke Fasciola hepatica” (PLoS Neglected Tropical Diseases, 2012)

target: T1, rFhGST-S1 (recombinant Fasciola hepatica Sigma class glutathione transferase) (Fasciola hepatica, UniProt Q06A71); test: inhibition of GSH-CDNB conjugation, spectrophotometric, graphical IC50; format: biochemical
T1 sequence (Q06A71 1-211): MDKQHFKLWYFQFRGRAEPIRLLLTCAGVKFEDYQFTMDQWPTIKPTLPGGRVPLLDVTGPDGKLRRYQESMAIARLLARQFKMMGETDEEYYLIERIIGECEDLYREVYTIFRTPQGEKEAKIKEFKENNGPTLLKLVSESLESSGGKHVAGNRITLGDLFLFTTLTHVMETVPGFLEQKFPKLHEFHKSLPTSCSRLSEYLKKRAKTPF

In order of rising IC50:
1. C[S+]([O-])c1nc2cc(Cl)c(Oc3cccc(Cl)c3Cl)cc2[nH]1 (stereo not shown) [TCBZ SO, sulphoxide derivative of Triclabendazole]  57 ± 5 µM
2. C[C@H](CCC(=O)O)[C@H]1CC[C@H]2[C@@H]3[C@H](O)C[C@@H]4C[C@H](O)CC[C@]4(C)[C@H]3CC[C@]12C [Chenodeoxycholic acid]  64 ± 9 µM
3. C[C@H](CCC(=O)O)[C@H]1CC[C@H]2[C@@H]3CC[C@@H]4C[C@H](O)CC[C@]4(C)[C@H]3C[C@H](O)[C@]12C [Deoxycholic acid]  223 ± 21 µM
4. C[C@H](CCC(=O)O)[C@H]1CC[C@H]2[C@@H]3[C@H](O)C[C@@H]4C[C@H](O)CC[C@]4(C)[C@H]3C[C@H](O)[C@]12C [Cholic acid]  302 ± 73 µM
